Test results published in patent US20220348595A1, “COMPOUNDS AND METHODS FOR THE TARGETED DEGRADATION OF ESTROGEN RECEPTORS” (Endotarget Inc., priority 2021, published 2022).
Where two headings read alike, the source gives them in different places.

Legend:
Type in all cases: cell-based
[1] = target: T1, ER (Homo sapiens, UniProt P03372); assay: ER antagonism (T47D ERE luciferase), T47d-kb-Luc cells; details: read-out: IC50 (ER antagonistm)
T1 construct: endogenous in cells; host or cells: T47d-kb-Luc (T47D stably transfected with a luciferase reporter gene only)
T1 sequence (P03372 1-595): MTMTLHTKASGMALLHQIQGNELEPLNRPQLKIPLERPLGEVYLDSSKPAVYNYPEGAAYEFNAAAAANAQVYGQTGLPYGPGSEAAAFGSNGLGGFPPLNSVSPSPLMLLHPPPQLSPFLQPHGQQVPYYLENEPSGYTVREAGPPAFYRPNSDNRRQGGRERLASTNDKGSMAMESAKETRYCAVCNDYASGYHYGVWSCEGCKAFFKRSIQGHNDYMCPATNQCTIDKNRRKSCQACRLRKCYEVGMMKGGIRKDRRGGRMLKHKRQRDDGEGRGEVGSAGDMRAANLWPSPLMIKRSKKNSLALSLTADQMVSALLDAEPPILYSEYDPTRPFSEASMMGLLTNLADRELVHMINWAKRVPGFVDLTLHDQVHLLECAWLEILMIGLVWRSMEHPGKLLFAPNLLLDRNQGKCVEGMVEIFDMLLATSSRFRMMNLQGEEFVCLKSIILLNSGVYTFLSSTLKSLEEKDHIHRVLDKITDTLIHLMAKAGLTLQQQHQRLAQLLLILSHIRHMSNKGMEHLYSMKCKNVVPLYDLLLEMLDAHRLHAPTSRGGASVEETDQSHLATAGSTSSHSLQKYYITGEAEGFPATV
Description: The Antiestrogenic Activity of the Exemplary Compounds was Assessed in T47d-kb-Luc Stably Transfected Human Breast Cancer Cell
Antagonist activities were measured by the compound's ability to inhibit the activity of estradiol, the natural estrogen. Data were then normalized relative to the activity of the estradiol control and determinations were performed for five concentrations of the samples in quadruplicate in at least three separate experiments.

[2] = tested on: MCF-7 breast cancer cells; assay: MCF-7 proliferation / cell viability assay; details: MCF-7 proliferation with 0.1 nM 17-beta estradiol, read-out: IC50 (anti-proliferation)
Description: The Anti-Proliferative Activities of the Exemplary Compounds were Assessed by a Cell Viability Assay in MCF-7 Breast Cancer Cells
MCF-7 cells were plated in six-well plates at a density of 50,000 each well in 5% FBS DMEM medium. The cells were then treated with exemplary compounds or fulvestrant separately at 6 different doses ranging from 10^−10 M to 10^−5 M for 5 days, while equal volumes of DMSO were used as vehicle controls. Viable cell numbers were counted with a Z Series Coulter Counter instrument (Beckman-Coulter) following manufacturer's instructions. The ratio of drug treated viable cell numbers to vehicle treated viable cell numbers was defined as survival ratio where the control has the survival ratio of 100%.

[3] = target: T2, ERα (Homo sapiens, UniProt P03372); assay: ER degradation in MCF-7 cells (Western blot); details: for DC50: ER degradation, 24 hours; for Dmax: MCF7, Maximal ER degradation, read-out: Dmax
T2 construct: endogenous in cells; host or cells: MCF-7
T2 sequence (P03372 1-595): T1 sequence (P03372 1-595)
Description: Degradation of ER in MCF-7 Breast Cancer Cells by Exemplary Compounds of the Present Disclosure
MCF-7 cells were plated in 24-well plates at a density of 10^5 cells/well. Media containing various drug concentrations were added on the day following plating (day 0) and allowed to incubate for 24 hours for Western blot. Media with the tested compound was changed every other day. Cells were lysed, snapped frozen in liquid nitrogen, and stored at −80° C. until assay for ERα. Media were removed and dishes were washed with 1× DPBS. Lysates were made by adding 150 μL of complete lysis solution and scraping cells into a 1.5 mL microcentrifuge tube. Lysates were placed on a rotisserie at 4° C. for 30 min and then spun at 4° C. at 12000 rcf for 10 min. Supernatants were assayed for protein content, snap-frozen, and stored a −80° C. if not run immediately. Then 50 μg of protein was subjected to Western blot protocol. Membranes were blocked and then incubated with 1:200 dilution of ERα antibody at 4° C. overnight followed by 1:10000 dilution of secondary antibody for 1 h at room temperature. They were then imaged on a LICOR infrared scanner.
FIGS. 1 to 10 show the ER degradation efficacy of compounds 3, 5, 9, 11, 12, 16, 18, 19, 20, 21, 23, 24, 25, 26, 27, 28, 29, 30, 31, 32, 33, 34, 37, 38, and 40 in MCF-7 cells at various concentrations. Degradation of ER was expressed as an DC50 value and was determined for exemplary compounds in Table 1 by calculation of the concentration of compound that was required to give a 50% reduction of ER expression level. Maximal degradation of ER was expressed as a Dmax value by measuring the highest percentage of ER reduction achieved by exemplary compound in the treatment concentration range.

Row | Compound | IC50 [1] | IC50 ([2]; Homo sapiens, MCF7) | DC50 [3] | Dmax [3] | IC50 [2]
1 | CC/C(=C(\c1ccc(OCCN2CCC(CCN3CCN(c4ccc5c(c4)C(=O)N(C4CCC(=O)NC4=O)C5=O)CC3)CC2)cc1)c1ccc(B(O)O)cc1)c1ccccc1 (stereo not drawn) [Compound 28, (E)-(4-(1-(4-(2-(4-(2-(4-(2-(2,6-dioxopiperidin-3-yl)-1,3-dioxoisoindolin-5-yl)piperazin-1-yl)ethyl)piperidin-1-yl)ethoxy)phenyl)-2-phenylbut-1-en-1-yl)phenyl)boronic acid] | > 50 nM | 10 to 50 nM | < 10 nM | > 90% | –
2 | CCC(=C(c1ccc(OCCN2CCN(CC3CCN(c4ccc5c(c4)C(=O)N(C4CCC(=O)NC4=O)C5=O)CC3)CC2)cc1)c1ccc(B(O)O)cc1)c1ccccc1 (stereo in doubt) [Compound 18, (E)-(4-(1-(4-(2-(4-((1-(2-(2,6-dioxopiperidin-3-yl)-1,3-dioxoisoindolin-5-yl)piperidin-4-yl)methyl)piperazin-1-yl)ethoxy)phenyl)-2-phenylbut-1-en-1-yl)phenyl)boronic acid] | 10 to 50 nM | – | < 10 nM | – | 10 to 50 nM
3 | CC/C(=C(\c1ccc(OCCN2CCN(CCC3CCN(c4ccc5c(c4)C(=O)N(C4CCC(=O)NC4=O)C5=O)CC3)CC2)cc1)c1ccc(B(O)O)cc1)c1ccccc1 (stereo not drawn) [Compound 26, (E)-(4-(1-(4-(2-(4-(2-(1-(2-(2,6-dioxopiperidin-3-yl)-1,3-dioxoisoindolin-5-yl)piperidin-4-yl)ethyl)piperazin-1-yl)ethoxy)phenyl)-2-phenylbut-1-en-1-yl)phenyl)boronic acid] | 10 to 50 nM | 10 to 50 nM | < 10 nM | > 90% | –
4 | CC/C(=C(/c1ccc(B(O)O)cc1)c1ccc(N2CCC(CN3CCN(c4ccc5c(c4)CN(C4CCC(=O)NC4=O)C5=O)CC3)CC2)cc1)c1ccccc1 (stereo not drawn) [Compound 2, (E)-(4-(1-(4-(4-((4-(2-(2,6-dioxopiperidin-3-yl)-1-oxoisoindolin-5-yl)piperazin-1-yl)methyl)piperidin-1-yl)phenyl)-2-phenylbut-1-en-1-yl)phenyl)boronic acid] | 10 to 50 nM | 10 to 50 nM | < 10 nM | > 90% | –
5 | CC/C(=C(/c1ccc(OCCN2CCC(CCN3CCN(c4ccc5c(c4)C(=O)N(C4CCC(=O)NC4=O)C5=O)CC3)CC2)cc1)c1ccc(B(O)O)cc1)c1ccccc1 (stereo not drawn) [Compound 27, (Z)-(4-(1-(4-(2-(4-(2-(4-(2-(2,6-dioxopiperidin-3-yl)-1,3-dioxoisoindolin-5-yl)piperazin-1-yl)ethyl)piperidin-1-yl)ethoxy)phenyl)-2-phenylbut-1-en-1-yl)phenyl)boronic acid] | > 50 nM | 10 to 50 nM | < 10 nM | > 90% | –
6 | CC/C(=C(\c1ccc(OCCN2CCN(CCCNc3ccc4c(c3)C(=O)N(C3CCC(=O)NC3=O)C4=O)CC2)cc1)c1ccc(B(O)O)cc1)c1ccccc1 (stereo not drawn) [Compound 16, (E)-(4-(1-(4-(2-(4-(3-((2-(2,6-dioxopiperidin-3-yl)-1,3-dioxoisoindolin-5-yl)amino)propyl)piperazin-1-yl)ethoxy)phenyl)-2-phenylbut-1-en-1-yl)phenyl)boronic acid] | 10 to 50 nM | 10 to 50 nM | 10 to 50 nM | > 75% | –
7 | CC/C(=C(\c1ccc(B(O)O)cc1)c1ccc(N2CCC(CCCN3CCN(c4ccc5c(c4)C(=O)N(C4CCC(=O)NC4=O)C5=O)CC3)CC2)cc1)c1ccccc1 (stereo not drawn) [Compound 51, (Z)-(4-(1-(4-(4-(3-(4-(2-(2,6-dioxopiperidin-3-yl)-1,3-dioxoisoindolin-5-yl)piperazin-1-yl)propyl)piperidin-1-yl)phenyl)-2-phenylbut-1-en-1-yl)phenyl)boronic acid] | 10 to 50 nM | 10 to 50 nM | < 10 nM | > 90% | –
8 | CC/C(=C(\c1ccc(OCCN2CCC(CN3CCN(c4ccc5c(c4)C(=O)N(C4CCC(=O)NC4=O)C5=O)CC3)CC2)cc1)c1ccc(B(O)O)cc1)c1ccccc1 (stereo not drawn) [Compound 20, (E)-(4-(1-(4-(2-(4-((4-(2-(2,6-dioxopiperidin-3-yl)-1,3-dioxoisoindolin-5-yl)piperazin-1-yl)methyl)piperidin-1-yl)ethoxy)phenyl)-2-phenylbut-1-en-1-yl)phenyl)boronic acid] | > 50 nM | > 50 nM | 10 to 50 nM | > 75% | –

Continued, values first:

Row | IC50 [1] | IC50 ([2]; Homo sapiens, MCF7) | DC50 [3] | Dmax [3] | IC50 [2] | Compound
9 | < 10 nM | 10 to 50 nM | 10 to 50 nM | > 90% | – | CC/C(=C(\c1ccc(O)cc1)c1ccc(N2CCN(C(=O)N3CCN(c4ccc5c(c4)CN(C4CCC(=O)NC4=O)C5=O)CC3)CC2)cc1)c1ccccc1 (stereo not drawn) [Compound 97, (E)-3-(5-(4-(4-(4-(1-(4-hydroxyphenyl)-2-phenylbut-1-en-1-yl)phenyl)piperazine-1-carbonyl)piperazin-1-yl)-1-oxoisoindolin-2-yl)piperidine-2,6-dione]
10 | < 10 nM | < 10 nM | 10 to 50 nM | > 90% | – | CC/C(=C(/c1ccc(O)cc1)c1ccc(OCCN2CCN(C(=O)N3CCC(N4CCN(c5ccc6c(c5)CN(C5CCC(=O)NC5=O)C6=O)CC4)CC3)CC2)cc1)c1ccccc1 (stereo not drawn) [Compound 94, (E)-3-(5-(4-(1-(4-(2-(4-(1-(4-hydroxyphenyl)-2-phenylbut-1-en-1-yl)phenoxy)ethyl)piperazine-1-carbonyl)piperidin-4-yl)piperazin-1-yl)-1-oxoisoindolin-2-yl)piperidine-2,6-dione]
11 | < 10 nM | 10 to 50 nM | 10 to 50 nM | > 90% | – | CC/C(=C(\c1ccc(O)cc1)c1ccc(N2CCN(C(=O)N3CCC(N4CCN(c5ccc6c(c5)CN(C5CCC(=O)NC5=O)C6=O)CC4)CC3)CC2)cc1)c1ccccc1 (stereo not drawn) [Compound 109, (E)-3-(5-(4-(1-(4-(4-(1-(4-hydroxyphenyl)-2-phenylbut-1-en-1-yl)phenyl)piperazine-1-carbonyl)piperidin-4-yl)piperazin-1-yl)-1-oxoisoindolin-2-yl)piperidine-2,6-dione]
12 | < 10 nM | 10 to 50 nM | 10 to 50 nM | > 90% | – | CC/C(=C(\c1ccc(B(O)O)cc1)c1ccc(N2CCC(CCN3CCN(c4ccc5c(c4)CN(C4CCC(=O)NC4=O)C5=O)CC3)CC2)cc1)c1ccccc1 (stereo not drawn) [Compound 7, (Z)-(4-(1-(4-(4-(2-(4-(2-(2,6-dioxopiperidin-3-yl)-1-oxoisoindolin-5-yl)piperazin-1-yl)ethyl)piperidin-1-yl)phenyl)-2-phenylbut-1-en-1-yl)phenyl)boronic acid]
13 | < 10 nM | < 10 nM | < 10 nM | > 90% | – | CC/C(=C(\c1ccc(O)cc1)c1ccc(N2CCN(C(=O)N3CCC(CN4CCN(c5ccc6c(c5)CN(C5CCC(=O)NC5=O)C6=O)CC4)CC3)CC2)cc1)c1ccccc1 (stereo not drawn) [Compound 113, (E)-3-(5-(4-((1-(4-(4-(1-(4-hydroxyphenyl)-2-phenylbut-1-en-1-yl)phenyl)piperazine-1-carbonyl)piperidin-4-yl)methyl)piperazin-1-yl)-1-oxoisoindolin-2-yl)piperidine-2,6-dione]
